Tests used:
Assay type in all cases: biochemical
PKC delta kinase = PKC delta kinase (Homo sapiens, UniProt Q05655); assay: PKC delta kinase inhibition, coupled-enzyme NADH absorbance assay; settings: 46 nM PKC delta kinase, 150 μM ATP, 30° C.
Experimental: An assay buffer solution was prepared which consisted of 100 mM HEPES (pH 7.5), 10 mM MgCl2, 25 mM NaCl, 0.1 mM EDTA and 0.01% Brij. An enzyme buffer containing reagents to final assay concentrations of 0.002% Triton X-100, 200 μg/mL Phosphatidylserine, 20 μg/mL Diacylglycerol, 360 μM NADH, 3 mM phosphoenolpyruvate, 70 μg/mL pyruvate kinase, 24 μg/mL lactate dehydrogenase, 2 mM DTT, 150 μM substrate peptide (ERMRPRKRQGSVRRRV SEQ ID NO. 2) and 46 nM PKC delta kinase was prepared in assay buffer. To 16 μL of this enzyme buffer, in a 384 well plate, was added 1 μL of VRT stock solution in DMSO. The mixture was allowed to equilibrate for 10 mins at 30° C. The enzyme reaction was initiated by the addition of 16 μL stock ATP solution prepared in assay buffer to a final assay concentration of 150 μM. Initial rate data was determined from the rate of change of absorbance at 340 nm (corresponding to stoichiometric consumption of NADH) using a Molecular Devices Spectramax plate reader (Sunnyvale, Calif.) over 15 mins at 30° C. For each Ki determination 12 data points covering the VRT concentration range of 0-20 μM were obtained in duplicate (DMSO stocks were prepared from an initial 10 mM VRT stock with subsequent 1:2 serial dilutions). Ki values were calculated from initial rate data by non-linear regression using the Prism software package (Prism 4.0a, Graphpad Software, San Diego, Calif.).

PKC alpha kinase = PKC alpha kinase (Homo sapiens, UniProt P17252); assay: PKC alpha kinase inhibition, coupled-enzyme NADH absorbance assay; settings: 4.5 nM PKC alpha kinase, 130 μM ATP, 100 μM CaCl2, 30° C.
Experimental: An assay buffer solution was prepared which consisted of 100 mM HEPES (pH 7.5), 10 mM MgCl2, 25 mM NaCl, 0.1 mM EDTA, 100 μM CaCl2 and 0.01% Brij. An enzyme buffer containing reagents to final assay concentrations of 0.002% Triton X-100, 100 μg/mL Phosphatidylserine, 20 μg/mL Diacylglycerol, 360 μM NADH, 3 mM phosphoenolpyruvate, […], 24 μg/mL lactate dehydrogenase, 2 mM DTT, 150 μM substrate peptide (RRRRRKGSFKRKA SEQ ID NO. 3) and 4.5 nM PKC alpha kinase was prepared in assay buffer. To 16 μL of this enzyme buffer, in a 384 well plate, was added 1 μL of VRT stock solution in DMSO. The mixture was allowed to equilibrate for 10 mins at 30° C. The enzyme reaction was initiated by the addition of 16 μL stock ATP solution prepared in assay buffer to a final assay concentration of 130 μM. Initial rate data was determined from the rate of change of absorbance at 340 nm (corresponding to stoichiometric consumption of NADH) using a Molecular Devices Spectramax plate reader (Sunnyvale, Calif.) over 15 mins at 30° C. For each Ki determination 12 data points covering the VRT concentration range of 0-20 μM were obtained in duplicate (DMSO stocks were prepared from an initial 10 mM VRT stock with subsequent 1:2 serial dilutions). Ki values were calculated from initial rate data by non-linear regression using the Prism software package (Prism 4.0a, Graphpad Software, San Diego, Calif.).

PKC theta kinase = PKC theta kinase (Homo sapiens, UniProt Q04759); assay: PKC theta kinase inhibition, coupled-enzyme NADH absorbance assay; settings: 18 nM PKC theta kinase, 240 μM ATP, 30° C.
PKC theta kinase, sequence (Q04759 whole entry): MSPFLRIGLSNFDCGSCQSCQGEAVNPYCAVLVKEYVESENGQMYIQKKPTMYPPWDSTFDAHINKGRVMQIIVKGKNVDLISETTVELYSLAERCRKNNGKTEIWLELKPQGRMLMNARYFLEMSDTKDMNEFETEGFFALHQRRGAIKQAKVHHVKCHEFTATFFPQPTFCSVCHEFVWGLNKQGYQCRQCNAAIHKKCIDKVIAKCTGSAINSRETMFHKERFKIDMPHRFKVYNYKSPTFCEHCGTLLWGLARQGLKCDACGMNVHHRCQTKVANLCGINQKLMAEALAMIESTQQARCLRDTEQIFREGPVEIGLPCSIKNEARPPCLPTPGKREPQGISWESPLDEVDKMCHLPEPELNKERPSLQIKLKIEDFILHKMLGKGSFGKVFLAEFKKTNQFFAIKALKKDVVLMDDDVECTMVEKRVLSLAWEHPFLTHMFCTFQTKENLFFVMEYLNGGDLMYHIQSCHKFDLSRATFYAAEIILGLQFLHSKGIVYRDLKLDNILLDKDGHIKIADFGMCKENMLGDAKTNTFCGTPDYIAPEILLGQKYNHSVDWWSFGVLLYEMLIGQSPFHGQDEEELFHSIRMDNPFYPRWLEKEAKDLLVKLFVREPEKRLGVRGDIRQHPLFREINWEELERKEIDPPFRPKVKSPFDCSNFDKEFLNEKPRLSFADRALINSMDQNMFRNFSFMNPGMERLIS
Experimental: An assay buffer solution was prepared which consisted of 100 mM HEPES (pH 7.5), 10 mM MgCl2, 25 mM NaCl, 0.1 mM EDTA and 0.01% Brij. An enzyme buffer containing reagents to final assay concentrations of 0.00001% Triton X-100, 200 μg/mL Phosphatidylserine, 20 μg/mL Diacylglycerol, 360 μM NADH, 3 mM phosphoenolpyruvate, 70 μg/mL pyruvate kinase, 24 μg/mL lactate dehydrogenase, 2 mM DTT, 100 μM substrate peptide (ERMRPRKRQGSVRRRV SEQ ID NO. 1) and 18 nM PKC theta kinase was prepared in assay buffer. To 60 μL of this enzyme buffer, in a 384 well plate, was added 2 μL of VRT stock solution in DMSO. The mixture was allowed to equilibrate for 10 mins at 30° C. The enzyme reaction was initiated by the addition of 5 μL stock ATP solution prepared in assay buffer to a final assay concentration of 240 μM. Initial rate data was determined from the rate of change of absorbance at 340 nm (corresponding to stoichiometric consumption of NADH) using a Molecular Devices Spectramax plate reader (Sunnyvale, Calif.) over 15 mins at 30° C. For each Ki determination 12 data points covering the VRT concentration range of 0-20 μM were obtained in duplicate (DMSO stocks were prepared from an initial 10 mM VRT stock with subsequent 1:2 serial dilutions). Ki values were calculated from initial rate data by non-linear regression using the Prism software package (Prism 4.0a, Graphpad Software, San Diego, Calif.).

PKC delta kinase, sequence (Q05655 whole entry): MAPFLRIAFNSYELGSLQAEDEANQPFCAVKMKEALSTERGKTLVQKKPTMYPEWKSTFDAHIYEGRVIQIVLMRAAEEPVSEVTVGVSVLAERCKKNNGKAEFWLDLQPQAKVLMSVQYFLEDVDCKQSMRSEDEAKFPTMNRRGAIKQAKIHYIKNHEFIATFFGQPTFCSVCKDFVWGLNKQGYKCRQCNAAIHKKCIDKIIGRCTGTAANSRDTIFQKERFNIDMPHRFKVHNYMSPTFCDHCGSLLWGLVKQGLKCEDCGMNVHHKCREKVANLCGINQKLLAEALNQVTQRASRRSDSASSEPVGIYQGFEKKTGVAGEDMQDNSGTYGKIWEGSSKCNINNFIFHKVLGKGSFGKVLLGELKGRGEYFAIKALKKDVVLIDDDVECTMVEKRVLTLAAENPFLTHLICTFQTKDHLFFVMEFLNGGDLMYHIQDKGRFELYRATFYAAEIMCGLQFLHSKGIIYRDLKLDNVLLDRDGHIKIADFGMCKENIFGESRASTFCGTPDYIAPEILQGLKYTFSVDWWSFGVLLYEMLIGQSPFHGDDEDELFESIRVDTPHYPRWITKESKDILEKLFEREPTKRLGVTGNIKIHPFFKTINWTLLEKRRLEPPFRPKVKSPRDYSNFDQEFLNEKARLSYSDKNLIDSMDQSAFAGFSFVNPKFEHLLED

| Ki (PKC delta kinase) [nM] | Ki (PKC alpha kinase) [nM] | Ki (PKC theta kinase) [nM] | Compound |
| --- | --- | --- | --- |
| < 2800 | > 1250 | < 500 | N#CCc1csc(-c2ccnc3[nH]ncc23)n1 [Compound 1, 2-(2-(1H-pyrazolo[3,4-b]pyridin-4-yl)thiazol-4-yl)ethanenitrile] |
| < 500 | < 2800 | < 50 | CC(C)(C#N)c1csc(-c2ccnc3[nH]ncc23)n1 [Compound 2, 2-(2-(1H-pyrazolo[3,4-b]pyridin-4-yl)thiazol-4-yl)-2-methyl propanenitrile] |
| < 500 | < 2800 | < 50 | CC(C)(CN)c1csc(-c2ccnc3[nH]ncc23)n1 [Compound 3, 2-(2-(1H-pyrazolo[3,4-b]pyridin-4-yl)thiazol-4-yl)-2-methylpropan-1-amine] |
| < 500 | < 2800 | < 500 | Cc1sc(-c2ccnc3[nH]ncc23)nc1C(C)(C)CN [Compound 4, 2-methyl-2-(5-methyl-2-(1H-pyrazolo[3,4-b]pyridin-4-yl)thiazol-4-yl)propan-1-amine] |
| < 500 | < 500 | < 50 | CCC(C#N)c1csc(-c2ccnc3[nH]ncc23)n1 (stereo not drawn) [Compound 5] |
| < 500 | < 2800 | < 50 | CCC(C)(C#N)c1csc(-c2ccnc3[nH]ncc23)n1 (stereo not drawn) [Compound 6] |
| < 500 | < 500 | < 50 | CCC(C#N)(CC)c1csc(-c2ccnc3[nH]ncc23)n1 [Compound 7] |
| < 500 | < 2800 | < 50 | CCC(C)(C#N)c1csc(-c2ccnc3[nH]nc(Cl)c23)n1 (stereo not drawn) [Compound 8] |
| < 500 | > 1250 | < 50 | CCC(CN)c1csc(-c2ccnc3[nH]ncc23)n1 (stereo not drawn) [Compound 9] |
| < 500 | < 2800 | < 50 | CCC(C)(CN)c1csc(-c2ccnc3[nH]ncc23)n1 (stereo not drawn) [Compound 10] |
| < 50 | < 500 | < 50 | CCC(C)(CN)c1csc(-c2ccnc3[nH]nc(Cl)c23)n1 (stereo not drawn) [Compound 11] |
| < 2800 | > 1250 | < 500 | CC1(CN)CCCc2sc(-c3ccnc4[nH]ncc34)nc21 (stereo not drawn) [Compound 12, (4-methyl-2-(1H-pyrazolo[3,4-b]pyridin-4-yl)-4,5,6,7-tetrahydrobenzo[d]thiazol-4-yl)methanamine] |
| < 500 | < 500 | < 50 | CCC(C)(CN)c1csc(-c2ccnc3[nH]ncc23)c1 (stereo not drawn) [Compound 13, 2-(5-(1H-pyrazolo[3,4-b]pyridin-4-yl)thiophen-3-yl)-2-methylbutan-1-amine] |
| > 2000 | > 1250 | < 500 | CCC(C)(CN)c1ccsc1-c1ccnc2[nH]ncc12 (stereo not drawn) [Compound 14] |
| < 2800 | > 1250 | < 500 | CCC(C#N)n1cc(-c2ccnc3[nH]ncc23)cn1 (stereo not drawn) [Compound 15, 2-(4-(1H-pyrazolo[3,4-b]pyridin-4-yl)-1H-pyrazol-1-yl)butanenitrile] |
| < 2800 | > 1250 | < 500 | NCCn1cc(-c2ccnc3[nH]ncc23)cn1 [Compound 16] |
| < 2800 | > 1250 | < 2800 | CCC(CN)n1cc(-c2ccnc3[nH]ncc23)cn1 (stereo not drawn) [Compound 17, 2-(4-(1H-pyrazolo[3,4-b]pyridin-4-yl)-1H-pyrazol-1-yl)butan-1-amine] |

— US8541445B2, “Pyrazolopyridines” (Vertex Pharmaceuticals Incorporated, priority 2009, dated 2013)
